Tests used:
[1] = target: T1, recombinant human cathepsin S (Homo sapiens, UniProt P25774); test: Cathepsin S enzyme inhibition, kinetic fluorescence assay; type: biochemical; details: selectivity ratio vs calpain
T1 construct: purchased Calbiochem 219343; host or cells: E. coli
Method: (§1) I Enzyme Inhibition in vitro:
(§2) Testing for blockade of the corresponding enzymic activities was carried out by means of kinetic fluorescence assays (excitation 390 nm, emission 460 nm).
(§3) Apparent Ki values were calculated from the experimentally determined IC50 values by the Cheng-Prussoff relation assuming a reversible competitive enzyme inhibition.
0.5 nM recombinant human cathepsin S from E. coli (Calbiochem #219343), 20 μM Z-Val-Val-Arg-AMC (Bachem #I-1540) as substrate in 50 mM MES, 2 mM EDTA, 0.05% Brij 35, 2.5 mM L-cysteine, pH 6.0, room temperature.

[2] = Cytosolic clearance in cynomolgus monkey liver cytosol; type: in vitro ADME; details: female; 0.5 μM compound, 1 mg/ml cynomolgus monkey liver cytosol, 37° C., pH 7.5; read-out: cyno cytCL (cytosolic clearance)
Method: (§4) III Assay for Determining Cytosolic Clearance of Compounds of Formula I: […]
(§5) For comparison purposes data measured with human liver cytosol were contrasted with those obtained with cynomolgus monkey liver cytosol.
(§6) 0.5 μM of a compound to be tested was incubated with 1 mg/ml of human liver cytosol as well as monkey liver cytosol at 37° C. in 0.5 M of phosphate buffer at pH 7.5 while shaking (commercial sources: female cynomolgus liver cytosol from Tebu bio, human liver cytosol from BDgentest).
(§7) In each case aliquots of 65 μl were taken after 0, 5, 10 and 15 min and transferred into wells of a wellplate which were immediately filled with 130 μl of ethanol to stop the reaction. The samples were kept frozen until analysis on a LC/MS/MS system (Applied Biosystems SCIEX 4000).
(§8) Read out parameters were the loss of parent compounds, from which the half life periods (T1/2) were calculated from.
(§9) To assess the stability of the compounds tested the clearance ranges were adjusted to the hepatic plasma flow of the different species according to the following scheme:
(§10) stable=from 0 to about ⅓ of the hepatic plasma flow;
(§11) moderately stable=from about ⅓ to about ⅔ of the hepatic plasma flow;
(§12) instable=more than ⅔ of the hepatic plasma flow.
(§13) Based on this adjustment the following qualifiers were assigned to evaluate the cytosolic stabilities of the compounds tested: […]

[3] = target: T2, cathepsin K activated from recombinant human procathepsin K (Homo sapiens, UniProt P43235); test: Cathepsin K enzyme inhibition, kinetic fluorescence assay; type: biochemical; details: selectivity ratio vs calpain
T2 construct: purchased Calbiochem 342001; host or cells: E. coli
T2 sequence (P43235 115-329): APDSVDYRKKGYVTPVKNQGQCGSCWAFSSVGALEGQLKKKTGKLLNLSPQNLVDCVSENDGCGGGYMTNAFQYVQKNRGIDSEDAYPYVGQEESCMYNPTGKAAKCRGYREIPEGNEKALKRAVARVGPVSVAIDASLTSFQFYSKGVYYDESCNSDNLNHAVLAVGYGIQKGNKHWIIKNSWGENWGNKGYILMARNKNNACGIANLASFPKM
Method: as §1, §2, §3
3 nM cathepsin K—activated from recombinant human procathepsin K from E. coli (Calbiochem #342001), 10 μM Z-Gly-Pro-Arg-AMC (Biomol #P-142) as substrate in 50 mM MES, 2 mM EDTA, 0.05% Brij 35, 2.5 mM L-cysteine, pH 6.0, room temperature.

[4] = target: T3, cathepsin L isolated from human liver (Homo sapiens, UniProt P07711); test: Cathepsin L enzyme inhibition, kinetic fluorescence assay; type: biochemical; details: selectivity ratio vs calpain
T3 construct: cathepsin L—isolated from human liver; purchased Calbiochem 219402; host or cells: human liver (tissue isolate)
T3 sequence (P07711 114-333): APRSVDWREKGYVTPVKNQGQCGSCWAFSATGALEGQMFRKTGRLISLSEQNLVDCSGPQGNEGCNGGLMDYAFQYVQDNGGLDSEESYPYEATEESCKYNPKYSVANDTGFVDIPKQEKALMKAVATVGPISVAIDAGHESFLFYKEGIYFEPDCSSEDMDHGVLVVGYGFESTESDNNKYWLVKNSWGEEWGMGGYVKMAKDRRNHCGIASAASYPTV
Method: as §1, §2, §3
1 nM cathepsin L—isolated from human liver (Calbiochem #219402), 2 μM Z-Phe-Arg-AMC (Bachem #I-1160) as substrate in 50 mM MES, 2 mM EDTA, 0.05% Brij 35, 2.5 mM L-cysteine, pH 6.0, room temperature.

[5] = target: T4, cathepsin B isolated from human liver (Homo sapiens, UniProt P07858); test: Cathepsin B enzyme inhibition, kinetic fluorescence assay; type: biochemical; details: selectivity ratio vs calpain
T4 construct: cathepsin B—isolated from human liver; purchased Calbiochem 219362; host or cells: human liver (tissue isolate)
Method: as §1, §2, §3
0.25 nM cathepsin B—isolated from human liver (Calbiochem #219362), 100 μM Z-Phe-Arg-AMC (Bachem #I-1160) as substrate 50 mM MES, 2 mM EDTA, 0.05% Brij 35, 2.5 mM L-cysteine, pH 6.0, room temperature.

[6] = target: T5, calpain-I isolated from human erythrocytes (Homo sapiens, UniProt P07384); test: Calpain I enzyme inhibition, kinetic fluorescence assay; type: biochemical; details: apparent Ki from IC50 by Cheng-Prussoff; human erythrocyte calpain-I
T5 construct: calpain-I—isolated from human erythrocytes; purchased Calbiochem 208713; host or cells: human erythrocytes (tissue isolate)
T5 sequence (P07384 1-714): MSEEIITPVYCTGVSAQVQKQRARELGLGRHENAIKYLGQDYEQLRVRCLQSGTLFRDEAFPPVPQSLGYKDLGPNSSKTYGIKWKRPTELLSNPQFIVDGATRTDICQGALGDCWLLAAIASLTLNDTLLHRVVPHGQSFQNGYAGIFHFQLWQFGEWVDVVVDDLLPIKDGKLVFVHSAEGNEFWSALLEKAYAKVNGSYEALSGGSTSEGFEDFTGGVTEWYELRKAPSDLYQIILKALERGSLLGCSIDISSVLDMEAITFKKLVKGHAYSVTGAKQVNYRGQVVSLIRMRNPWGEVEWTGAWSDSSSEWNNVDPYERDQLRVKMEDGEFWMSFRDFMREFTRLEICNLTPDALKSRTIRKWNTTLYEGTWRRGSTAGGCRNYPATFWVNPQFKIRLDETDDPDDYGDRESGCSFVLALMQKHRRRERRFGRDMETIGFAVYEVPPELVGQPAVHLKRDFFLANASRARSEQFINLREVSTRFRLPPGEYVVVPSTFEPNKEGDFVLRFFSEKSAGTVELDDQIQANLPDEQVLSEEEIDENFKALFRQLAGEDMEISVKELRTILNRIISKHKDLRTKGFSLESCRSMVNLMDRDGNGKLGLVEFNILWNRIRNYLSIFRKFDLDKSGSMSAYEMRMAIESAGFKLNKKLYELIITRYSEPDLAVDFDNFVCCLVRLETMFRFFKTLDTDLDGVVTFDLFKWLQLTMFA
T5 sequence (P04632 1-268 partner): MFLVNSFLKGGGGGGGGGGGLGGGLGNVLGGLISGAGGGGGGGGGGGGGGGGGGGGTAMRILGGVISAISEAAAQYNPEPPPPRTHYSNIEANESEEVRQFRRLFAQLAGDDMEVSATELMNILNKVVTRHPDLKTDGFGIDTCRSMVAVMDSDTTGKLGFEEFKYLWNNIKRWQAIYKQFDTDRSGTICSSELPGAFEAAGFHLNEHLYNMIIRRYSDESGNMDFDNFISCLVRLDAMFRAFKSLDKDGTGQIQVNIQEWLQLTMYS
Method: as §1, §2, §3
20 nM calpain-I—isolated from human erythrocytes (Calbiochem #208713), 100 μM Suc-Leu-Tyr-AMC (Bachem #I-1355) as substrate in buffer with 62 mM imidazole, 0.3 mM CaCl2, 0.10% CHAPS, 0.05% BSA, 1 mM DTT at pH 7.3 and room temperature.

[7] = Cytosolic clearance in human liver cytosol; type: in vitro ADME; details: 0.5 μM compound, 1 mg/ml human liver cytosol, 37° C., pH 7.5; read-out: human cytCL (cytosolic clearance)
Method: as §4, §5, §6, §7, §8, §9, §10, §11, §12, §13

T1 sequence (P25774 115-331): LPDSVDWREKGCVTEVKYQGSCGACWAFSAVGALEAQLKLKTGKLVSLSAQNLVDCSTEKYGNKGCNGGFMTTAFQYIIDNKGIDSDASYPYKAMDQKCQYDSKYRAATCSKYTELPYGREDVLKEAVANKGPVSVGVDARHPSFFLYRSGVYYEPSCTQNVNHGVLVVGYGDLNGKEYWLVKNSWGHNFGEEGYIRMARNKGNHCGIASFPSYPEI

Row | SMILES | Sel cat. S (Ki(cathepsin S)/Ki(calpain) ratio) [1] | cytosolic intrinsic clearance at 0.5 μM [2] [µL/min/mg] | Sel cat. K (Ki(cathepsin K)/Ki(calpain) ratio) [3] | Sel cat. L (Ki(cathepsin L)/Ki(calpain) ratio) [4] | Sel cat. B (Ki(cathepsin B)/Ki(calpain) ratio) [5] | Ki [6] [nM] | cytosolic intrinsic clearance at 0.5 μM [7] [µL/min/mg] | Calpain activity (Ki(calpain)) [6]
1 | CCONC(=O)C(=O)C(Cc1ccccc1)NC(=O)c1cccnc1-n1ccc(-c2ccccc2)n1 (centres unmarked) [Example 7, N-(4-(Ethoxyamino)-3,4-dioxo-1-phenylbutan-2-yl)-2-(3-phenyl-1H-pyrazol-1-yl)nicotinamide] | +++ (+++ means a Ki(cathepsin S)/Ki(calpain) ratio of >50) | < 18 | + (+ means 2≦Ki(cathepsin K)/Ki(calpain)≦4) | ++ (++ means 10<Ki(cathepsin L)/Ki(calpain)≦50) | ++ (++ means 4<Ki(cathepsin B)/Ki(calpain)≦10) | < 200 | < 14 | 
2 | CC(C)(C)ONC(=O)C(=O)C(Cc1ccccc1)NC(=O)c1cccnc1-n1ccc(-c2ccccc2)n1 (centres unmarked) [Example 16, N-(4-{[(2-Methyl-2-propanyl)oxy]amino}-3,4-dioxo-1-phenyl-2-butanyl)-2-(3-phenyl-1H-pyrazol-1-yl)nicotinamide] | ++ (++ means 10<Ki(cathepsin S)/Ki(calpain)≦50) |  | ∘ | + (+ means 5≦Ki(cathepsin L)/Ki(calpain)≦10) | +++ (+++ means a Ki(cathepsin B)/Ki(calpain) ratio of >10) | 300 to 600 |  | 
3 | CC(C)(C)CONC(=O)C(=O)C(Cc1ccccc1)NC(=O)c1cccnc1-n1ccc(-c2ccccc2)n1 (centres unmarked) [Example 21, N-{4-[(2,2-Dimethylpropoxy)amino]-3,4-dioxo-1-phenyl-2-butanyl}-2-(3-phenyl-1H-pyrazol-1-yl)nicotinamide] | + (+ means 5≦Ki(cathepsin S)/Ki(calpain)≦10) |  | ∘ | ∘ | + (+ means 2≦Ki(cathepsin B)/Ki(calpain)≦4) | 200 to 300 |  | 
4 | CCONC(=O)C(=O)C(Cc1ccc(OC)cc1)NC(=O)c1cccnc1-n1ccc(-c2ccccc2)n1 (centres unmarked) [Example 24, N-[4-(Ethoxyamino)-1-(4-methoxyphenyl)-3,4-dioxo-2-butanyl]-2-(3-phenyl-1H-pyrazol-1-yl)nicotinamid] | ++ (++ means 10<Ki(cathepsin S)/Ki(calpain)≦50) |  | + (+ means 2≦Ki(cathepsin K)/Ki(calpain)≦4) | ++ (++ means 10<Ki(cathepsin L)/Ki(calpain)≦50) | ++ (++ means 4<Ki(cathepsin B)/Ki(calpain)≦10) | < 200 |  | 
5 | CCONC(=O)C(=O)C(Cc1ccccc1)NC(=O)[C@H]1CCC(=O)N1Cc1ccccc1 (stereo partly drawn) [Example 29, (2R)-1-benzyl-N-(4-(ethoxyamino)-3,4-dioxo-1-phenylbutan-2-yl)-5-oxopyrrolidine-2-carboxamide] | ++ (++ means 10<Ki(cathepsin S)/Ki(calpain)≦50) |  | ++ (++ means 4<Ki(cathepsin K)/Ki(calpain)≦10) | ++ (++ means 10<Ki(cathepsin L)/Ki(calpain)≦50) | +++ (+++ means a Ki(cathepsin B)/Ki(calpain) ratio of >10) |  |  | ∘
6 | O=C(NOCC1CC1)C(=O)C(Cc1ccccc1)NC(=O)[C@H]1CCC(=O)N1Cc1ccccc1 (stereo partly drawn) [Example 31, (2R)-1-benzyl-N-(4-(cyclopropylmethoxyamino)-3,4-dioxo-1-phenylbutan-2-yl)-5-oxopyrrolidine-2-carboxamide] | ++ (++ means 10<Ki(cathepsin S)/Ki(calpain)≦50) |  | ∘ | ∘ | + (+ means 2≦Ki(cathepsin B)/Ki(calpain)≦4) | < 200 |  | 

Source: US9051304B2, “Carboxamide compounds and their use as calpain inhibitors V” (AbbVie Deutschland GmbH & Co. KG, priority 2009, dated 2015)
